Results published in patent US5470860A, “1,4-dihydropyridines for use in the treatment of dermatoses” (Byk Gulden Lomberg Chemische Fabrik GmbH, priority 1991, dated 1995).

Experiments:
[1] = test system: human transformed keratinocytes (HaCat); assay: cells; conditions: 72 h
Protocol: In a second cell reproduction test, human transformed keratinocytes (HaCat) are employed which are cultured in DMEM culture medium with an addition of 10% calf serum. Cells which have grown to confluence beforehand are isolated with trypsin and distributed in 6-well plates in a density of 40×10^3.
The test substance is added 24 h after distribution and after incubation for a further 72 h the cell count is determined using a Coulter counter. Controls are incubated without further additions or with the addition of the solubilizer polyethylene glycol 400 (0.05%).
Evaluation was made in each case for 6 wells/concentration.

[2] = test system: human keratinocytes; assay: cells; conditions: Keratinocyte, 264 h, read-out: average inhibitory concentration (IC50)
Protocol: To determine the action, firstly human keratinocytes from the preputial skin of neonates after the 1st passage are distributed in MCDB153 medium in 96-well microtiter plates (2×10^3 cells/well) and the compound given below is added in concentrations of from 10^-10 to 10^-5 M, blank controls containing only the solubilizer DMSO (1%). The period of incubation is 11 days, and after another 2 days in each case there is a change of medium followed by renewed addition of substance.
To determine the rate of cell reproduction, incubation is carried out for 1 h with 4-methylumbelliferyl heptanoate (MUH) according to the method described by R. Stadler et al., Journal of Investigative Dermatology 93, 532-534, 1989, after which the fluorescence intensity is measured using a Titertek Fluoroskan.
4 experiments were carried out, in each case with 4 wells/concentration.

[3] = read-out: % inhibition of growth

COC(=O)C1=C(C)NC(C)=C(C(=O)OCCCN2CCC(c3ccccc3)(c3ccccc3)CC2)C1c1cccc([N+](=O)[O-])c1 (single isomer, unassigned) [Compound 1, 3-methyl 5-[3-(4,4-diphenyl-1-piperidyl)propyl] (-)-1,4-dihydro-2,6-dimethyl-4-(3-nitrophenyl)pyridine-3,5-dicarboxylate]
inhibition at 1 µM [1, 3]: 60%
inhibition at 10 µM [1, 3]: 96%
IC50 ([1]; read-out: inhibitory concentration (IC50)): 0.52 µM
IC50 [2]: 0.088 µM
